The target of series [1] is T1, cyclic AMP phosphodiesterase (Oryctolagus cuniculus, UniProt G1ST54).
T1 construct: the supernatant was collected to use it as a crude enzyme solution; from tissue; host or cells: rabbit platelets (from platelet-rich plasma), 100,000 xg supernatant, DEAE-cellulose fraction
T1 sequence (G1ST54 1-1128): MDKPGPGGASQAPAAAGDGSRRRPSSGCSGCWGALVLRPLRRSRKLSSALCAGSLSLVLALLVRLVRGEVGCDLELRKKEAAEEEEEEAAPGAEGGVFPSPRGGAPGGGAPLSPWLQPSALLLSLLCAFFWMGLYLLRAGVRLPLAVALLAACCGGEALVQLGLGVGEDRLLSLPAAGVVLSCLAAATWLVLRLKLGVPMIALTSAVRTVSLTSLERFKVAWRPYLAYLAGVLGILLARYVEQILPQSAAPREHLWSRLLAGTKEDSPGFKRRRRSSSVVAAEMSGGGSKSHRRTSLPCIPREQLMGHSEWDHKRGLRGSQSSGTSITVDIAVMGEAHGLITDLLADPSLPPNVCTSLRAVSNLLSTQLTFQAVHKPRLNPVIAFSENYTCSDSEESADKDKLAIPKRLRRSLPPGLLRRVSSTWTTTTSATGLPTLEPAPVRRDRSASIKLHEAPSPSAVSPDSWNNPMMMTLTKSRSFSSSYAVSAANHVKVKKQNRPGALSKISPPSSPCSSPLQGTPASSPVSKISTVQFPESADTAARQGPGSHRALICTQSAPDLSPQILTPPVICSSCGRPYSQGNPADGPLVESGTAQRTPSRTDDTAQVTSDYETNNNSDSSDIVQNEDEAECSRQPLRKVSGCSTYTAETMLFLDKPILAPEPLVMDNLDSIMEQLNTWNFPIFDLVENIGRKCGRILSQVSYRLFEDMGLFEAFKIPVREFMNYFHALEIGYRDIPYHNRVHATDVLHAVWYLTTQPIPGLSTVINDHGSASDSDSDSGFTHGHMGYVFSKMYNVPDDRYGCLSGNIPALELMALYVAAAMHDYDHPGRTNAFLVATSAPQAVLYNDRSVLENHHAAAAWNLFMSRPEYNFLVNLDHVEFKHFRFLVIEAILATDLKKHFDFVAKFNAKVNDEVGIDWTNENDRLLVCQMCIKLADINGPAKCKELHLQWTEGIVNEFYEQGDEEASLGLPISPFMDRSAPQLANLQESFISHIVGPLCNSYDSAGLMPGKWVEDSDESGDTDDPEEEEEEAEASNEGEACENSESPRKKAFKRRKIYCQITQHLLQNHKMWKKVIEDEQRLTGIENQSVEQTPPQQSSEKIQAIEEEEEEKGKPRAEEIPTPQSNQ
Put plainly: Obstructive action against cyclic AMP phosphodiesterase. To be noted: 1.0 μmol cyclic AMP, pH 8.0, 30° C., read-out: phosphodiesterase obstruction rate. The class given is biochemical, rabbit. On the procedure:
The obstructive action against cyclic AMP phosphodiesterase was measured according to the activity measuring method described in "Biochimica et Biophysica Acta", Vol. 429, pp. 485-497 (1976) and "Biochemical Medicine", Vol. 10, pp. 301-311 (1974).
That is, for determining the obstructive activity against cyclic AMP phosphodiesterase, 10 ml of a solution obtained by adding 1 mmol of MgCl2 into 50 mmol of tris-hydrochloric acid buffer with pH 7.4 was added to the platelets obtained by further centrifuging the abovesaid rabbit PRP at 3,000 r.p.m. for 10 minutes, and the suspended platelets were ground by a Teflon potter type homogenizer. This was followed by two times of freezing and thawing treatment and 300-second fracturing with 200 watt supersonic waves. After additional 60-minute centrifugation with 100,000 xg, the supernatant was collected to use it as a crude enzyme solution.
10 Milliliters of this crude buffer solution was added to a 1.5×20 cm DEAE-cellulose column which has previously been buffered with 50 mmol of tris-acetate buffer (pH 6.0), followed by washing and elution with 30 ml of 50 mmol tris-acetate buffer, and this buffer solution was subjected to linear gradient elution with 0 to 0.5 moles of sodium acetate-tris-acetatebuffer. The flow rate was 0.5 ml/min, and 5 ml of each fraction was batched out. […] This fraction was used as cyclic AMP phosphodiesterase.
0.1 Milliliter of an aqueous solution of each test compound of a specified concentration was mixed with 40 mmol of tris-hydrochloric acid buffer (pH 8.0, containing 50 μg of cow serum albumin and 4 mmol of MgCl2) containing predetermined 1.0 μmol of cyclic AMP (tritium cyclic AMP), and 0.2 ml of this mixed solution was used as substrate solution.
0.2 Milliliter of the above-prepared cyclic AMP phosphodiesterase of a predetermined concentration was added to said substrate solution and the mixture was reaction at 30° C. for 20 minutes, producing tritium 5'-AMP from the tritium cyclic AMP.
The reaction system was then immersed in boiling water for 2 minutes to stop the reaction, and then this reaction solution was cooled in ice water and, for converting the produced tritium 5'-AMP into tritium adenosine, the solution was added with 0.05 ml (1 mg/ml) of snake poison as 5'-nucleotidase and reacted at 30° C. for 10 minutes. The whole amount of this reaction solution was then added to a cation exchange resin (AG 500 W×4, 200-400 meshes, manufactured by Bio-Rad Co., column size: 0.5×1.5 cm), and the produced tritium anodesine alone was allowed to combine, washed with 6 ml of distilled water and eluted with 1.5 ml of 3 N-ammonia water. The whole quantity of the elutant was added with 10 ml of a triton-toluene type scintillator and the produced tritium adenosine was measured by a liquid scintillation counter to determine the phosphodiesterase activity.
In this way, the phosphodiesterase activation value (Vs) of the test compounds of the respective concentrations was determined, and the phosphodiesterase obstruction rate (%) was determined from said activation value (Vs) and control value (Vc) (obtained from water not containing any test compound) from the following formula: [formula]

The subject of series [2] is rabbit platelet. Put plainly: Collagen-induced aggregation in rabbit platelets (AG-II Aggregometer). Format: cell-based. The essentials:
(§1)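 Rabbit citrated PRP, diluted with PPP to 300,000/mm^3 platelets for ADP or 450,000/mm^3 for collagen, was preincubated with compound 1 min at 37° C. before inducer was added. ADP at 7.5×10^-5 M or collagen supernatant in Auren Beronal buffer pH 7.35; transmittance change recorded, percent inhibition derived.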

Series [3] has as its system rabbit platelet. Briefly: ADP-induced aggregation in rabbit platelets (AG-II Aggregometer). Format: cell-based. The essentials:
as §1

For the next series, the system named is Male mice. Briefly: Acute toxicity test, oral administration to mice. The class given is in vivo. On the procedure: The test compounds were administered orally to the mice and LD50 (mg/kg) of the compounds was determined.

Bounds are passed on as bounds.

As to `CC(C)Cn1c(=O)n(C)c(=O)c2[nH]cnc21` [1-Methyl-3-isobutylxanthine, 1-methyl-3-isobutylxanthine, reference compound], the inhibition at 100 µM in series [1] (10^-4 mole) amounted to 98.5%. In addition, the inhibition at 10 µM in series [1] (10^-5 mole) came out at 85.7%. Also, the inhibition at 1 µM in series [1] (10^-6 mole) amounted to 67.4%. For the same compound, the inhibition at 0.1 µM in series [1] (10^-7 mole) was determined as 3.2%.
Turning to `O=C1CCc2cc(OCCCC(=O)Nc3c(Cl)cccc3Cl)ccc2N1` [compound 21, 6-[3-(o,o-Dichloroanilinocarbonyl)propoxy]-3,4-dihydrocarbonstyril], the entries for the “Inhibition effect on collagen induced aggregation in rabbit platelet” value in the series with rabbit platelet [2] (10^-4 mole) and with rabbit platelet [2] (10^-5 mole) were 95.1% and 27.6%, respectively. For the same compound, the entries for the “Inhibition effect on ADP-induced aggregation in rabbit platelet” value in the series with rabbit platelet [3] (10^-4 mole) and with rabbit platelet [3] (10^-5 mole) were 36.8% and 5.3%, respectively. In addition, the LD50 in the series with Male mice is reported as greater than 1000 mg.

Source of the values: patent US4298739A, “Novel carbostyril derivatives” (priority 1977, dated 1981).
